Laboratory results from ChEMBL document CHEMBL6177992, “A First-in-Class Hepatocyte Nuclear Factor 4 Agonist” (J Med Chem, 2025).

Columns and labels:
[1] = target: T1, Nuclear receptor subfamily 1 group I member 2 (Homo sapiens, UniProt O75469); test: Agonist activity at human Gal4-PXR-LBD expressed in HEK293T cells transfected with pFR-Luc/pRLSV40 assessed as relative luminescence at 1 uM measured after 14 to 16 hrs by hybrid reporter gene assay; type: cell-based; details: time 14-16 hrs
T1 sequence (O75469 whole entry): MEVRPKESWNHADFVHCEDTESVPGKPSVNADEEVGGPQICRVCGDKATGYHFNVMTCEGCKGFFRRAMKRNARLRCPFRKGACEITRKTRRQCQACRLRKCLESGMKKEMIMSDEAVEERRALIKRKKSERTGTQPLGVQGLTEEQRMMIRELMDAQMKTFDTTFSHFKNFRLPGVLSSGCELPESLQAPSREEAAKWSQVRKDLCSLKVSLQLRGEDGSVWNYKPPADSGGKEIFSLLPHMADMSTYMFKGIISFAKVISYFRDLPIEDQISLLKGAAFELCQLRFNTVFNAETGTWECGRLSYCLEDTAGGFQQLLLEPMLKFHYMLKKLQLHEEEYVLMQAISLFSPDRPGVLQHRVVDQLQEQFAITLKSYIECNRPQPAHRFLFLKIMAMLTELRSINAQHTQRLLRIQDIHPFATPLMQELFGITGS

[2] = target: T2, CAR (nuclear receptor subfamily 1 group I member 3) (Homo sapiens, UniProt Q14994); test: Agonist activity at human Gal4-CARalpha-LBD expressed in HEK293T cells transfected with pFR-Luc/pRLSV40 assessed as relative luminescence at 1 uM measured after 14 to 16 hrs by hybrid reporter gene assay; type: cell-based; details: time 14-16 hrs, read-out: Activity
T2 sequence (Q14994 whole entry): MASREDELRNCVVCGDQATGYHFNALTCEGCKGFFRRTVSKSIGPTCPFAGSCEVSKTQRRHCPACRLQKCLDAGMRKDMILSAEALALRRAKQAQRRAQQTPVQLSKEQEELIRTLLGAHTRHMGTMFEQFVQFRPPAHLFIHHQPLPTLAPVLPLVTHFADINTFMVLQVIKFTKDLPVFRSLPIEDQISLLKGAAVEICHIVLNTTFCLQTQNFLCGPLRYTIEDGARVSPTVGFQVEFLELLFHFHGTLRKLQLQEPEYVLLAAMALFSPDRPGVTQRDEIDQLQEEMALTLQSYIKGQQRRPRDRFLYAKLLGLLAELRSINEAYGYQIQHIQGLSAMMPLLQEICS

- Activity [1]: < 20%
- activity at 1 µM [2]: < 20%
SMILES: Cc1ccc(C#Cc2ccc(O)c(C(=O)O)c2)c(Cl)c1
